Consider 19 compounds from ChEMBL document CHEMBL1133054, “Noncovalent thrombin inhibitors incorporating an imidazolylethynyl P1” (Bioorg Med Chem Lett, 2000).

In general, Cmax refers to the peak of the concentration-time curve. In general, Ki refers to a measure of affinity in units of concentration, obtained from inhibition or displacement. The Tmax is the time at which the peak concentration occurs. The AUC is the area under the concentration-time curve, a measure of exposure. Read a high AUC as more exposure. One may read the half-life as the time in which the quantity being followed falls by half. Read a low half-life as fast loss. By clearance is commonly meant the volume of plasma or blood freed of the substance per unit of time. Low values mean inefficient removal, high ones efficient removal. What is called bioavailability is dose-corrected exposure relative to a reference, in per cent. Lower therefore signals little systemic uptake.

Series [1] in a line: Peak plasma concentration (Cmax) was determined. The series is classed as ADME, organism-based. Conditions: rat.
Series [2] has as its target Prothrombin (Homo sapiens, UniProt P00734). Description: In vitro inhibition of human thrombin.
Series [3] deals with T1, Serine protease 1 (Bos taurus, UniProt P00760).
T1 sequence (P00760 whole entry): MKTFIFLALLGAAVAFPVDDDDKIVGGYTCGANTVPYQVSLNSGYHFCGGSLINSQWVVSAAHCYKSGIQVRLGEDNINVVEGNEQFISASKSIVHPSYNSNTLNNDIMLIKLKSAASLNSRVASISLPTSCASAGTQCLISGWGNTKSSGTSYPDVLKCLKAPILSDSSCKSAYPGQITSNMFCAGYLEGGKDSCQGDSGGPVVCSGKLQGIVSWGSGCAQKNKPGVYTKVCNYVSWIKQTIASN
Description: Inhibitory activity against Bovine Trypsin.

Series [4] is described as follows: Maximum time (Tmax) required to reach Cmax in rats. To be noted: rat, in vivo. The series is classed as ADME, organism-based.
Series [5] in a line: Peak plasma concentration (Cmax) in rats. The series is classed as ADME, organism-based. To be noted: rat.
The nature of series [6]: Area under curve (AUC) at a dose of […] mg/kg in rats. The series is classed as ADME, organism-based. To be noted: rat, in vivo, 30 mg/kg.
The test system of series [7] is Rattus norvegicus. In words: Oral bioavailability. The series is classed as ADME, organism-based. To be noted: in vivo.
The nature of series [8]: Half life (t1/2) was determined. The series is classed as ADME, organism-based. Conditions: rat, in vivo.
The nature of series [9]: Area under curve at a dose of 10 mg/kg. The series is classed as ADME, organism-based. The arrangement: dose 10 mg/kg. Conditions: in vivo.
Series [10] in a line: Plasma Clearance was determined. The series is classed as ADME, organism-based. Conditions: rat.
Series [11] is described as follows: Area under curve at a dose of 30 mg/kg. The series is classed as ADME, organism-based. The arrangement: dose 30 mg/kg. To be noted: rat, in vivo.
Series [12] is described as follows: Bioavailability. The series is classed as ADME, organism-based. Conditions: eutheria, in vivo.

`CC(=O)N[C@@H](C(=O)N1CCC[C@H]1C(=O)NCC#Cc1cnc[nH]1)C(c1ccccc1)c1ccccc1`: the Cmax in series [1] was found to be 1.6 µM. Besides, in series [2], the Ki was determined as 0.208 µM.
Consider `COC(=O)N[C@@H](C(=O)N1CCC[C@H]1C(=O)NCC#Cc1c[nH]cn1)C(C1CCCCC1)C1CCCCC1`, for which the inhibition constant (Ki) in series [3] amounted to 30 µM; in series [2] it was 0.015 µM.
The like results for `NS(=O)(=O)N[C@@H](C(=O)N1CCC[C@H]1C(=O)NCC#Cc1c[nH]cn1)C(c1ccccc1)c1ccccc1` were, in that order, 18 µM and 0.0008 µM.
As for `CC(C)(C)OC(=O)N[C@@H](C(=O)N1CCC[C@H]1C(=O)NCC#Cc1c[nH]cn1)C(c1ccccc1)c1ccccc1`, the time of peak concentration (Tmax) in series [4] was 1 h. This compound returned a Ki in series [3] of 50 µM. In addition, the Cmax in series [5] came to 14.6 µM. This compound came in with an AUC in series [6] of 29 µM·h.
Regarding `CC(C)(C)OC(=O)N[C@H](Cc1ccccc1)C(=O)N1CCC[C@H]1C(=O)NCC#Cc1ccncc1`, the Ki in series [2] was more than 20 µM.
Same read-out and setting: then `CC(C)(C)OC(=O)N[C@H](Cc1ccccc1)C(=O)N1CCC[C@H]1C(=O)NCC#Cc1cn[nH]c1`, with 5.4 µM.
With `O=C(O)CN[C@@H](C(=O)N1CCC[C@H]1C(=O)NCC#Cc1cnc[nH]1)C(c1ccccc1)c1ccccc1`, the values for the inhibition constant Ki in [3] and in series [2] were 47 µM and 0.044 µM, respectively. The same compound returned a Cmax in series [1] of 1.6 µM.
As to `O=C(NCC#Cc1cnc[nH]1)[C@@H]1CCCN1C(=O)[C@H](NS(=O)(=O)Cc1ccccc1)C(c1ccccc1)c1ccccc1`, the inhibition constant (Ki) in series [3] amounted to 24 µM; in series [2] it was 0.003 µM.
Take `NC1CCC(CNC(=O)[C@@H]2CCCN2C(=O)[C@H](N)C(c2ccccc2)c2ccccc2)CC1` (stereo not given in full): the F entry in series [7] is “Oral bioavailability”.
With `CC(C)(C)OC(=O)N[C@@H](C(=O)N1CCC[C@H]1C(=O)NCC#Cc1cnc[nH]1)C(C1CCCCC1)C1CCCCC1`, the figures for the inhibition constant (Ki) in series [3] and in series [2] were 30 µM and 0.029 µM, respectively.
For the compound `COC(=O)N[C@@H](C(=O)N1CCC[C@H]1C(=O)NCC#Cc1c[nH]cn1)C(c1ccccc1)c1ccccc1`, the time to peak (Tmax) in series [4] is 1 h. Also, the figures for the inhibitory constant (Ki) in series [3] and in series [2] were 24 µM and 0.014 µM, respectively. Besides, the half-life in [8] was determined as 0.667 h. Besides, the AUC in series [9] was 26 µM·h; in series [11] it was 46 µM·h. Moreover, in [10], the clearance amounted to 0.768 L/h/kg. In addition, the peak level in series [1] (Cmax) was 23.6 µM. The compound further registered a bioavailability in [12] of 58%.
`CN(C(=O)[C@H](Cc1ccc(C(=N)NN)cc1)NS(=O)(=O)c1ccc2ccccc2c1)C1CCCC1` returned a Ki in series [3] of 33 µM.
For `NC1CCC(CNC(=O)[C@@H]2CCCN2C(=O)[C@H](NS(=O)(=O)Cc2ccccc2)C(c2ccccc2)c2ccccc2)CC1` (stereo not given in full), the F entry in [7] is “Oral bioavailability”.
In series [2], `Cn1cncc1C#CCNC(=O)[C@@H]1CCCN1C(=O)[C@@H](Cc1ccccc1)NC(=O)OC(C)(C)C` had an inhibitory constant (Ki) of 5.5 µM.
With `CS(=O)(=O)N[C@@H](C(=O)N1CCC[C@H]1C(=O)NCC#Cc1c[nH]cn1)C(c1ccccc1)c1ccccc1`, the Ki in [3] amounted to 14 µM; in [2], 0.0026 µM.
`CC(C)(C)OC(=O)N[C@H](Cc1ccccc1)C(=O)N1CCC[C@H]1C(=O)NCC#Cc1ccc(N)nc1` had a Ki in series [2] of more than 20 µM.
Still for that read-out and setting: then `CC(C)(C)OC(=O)N[C@H](Cc1ccccc1)C(=O)N1CCC[C@H]1C(=O)NCC#Cc1cnc[nH]1`, with 1.2 µM.
In the case of `O=C(O)CN[C@H](CC1CCCCC1)C(=O)N1CCC[C@H]1C(=O)NCC#Cc1cnc[nH]1`, the highest level in series [1] (Cmax) was 1.6 µM. This compound came in with an inhibitory constant (Ki) in series [2] of 0.48 µM.
With `N[C@@H](C(=O)N1CCC[C@H]1C(=O)NCC#Cc1cnc[nH]1)C(c1ccccc1)c1ccccc1`, the figures for the Ki in series [3] and in series [2] were 25 µM and 0.012 µM, respectively.
